# Test results taken from patent US20210161866A1, “DRUG FOR USE IN COMBINATION, AND USE THEREOF FOR PREPARING DRUGS FOR TREATMENT OF HIGH-GRADE BRAIN TUMORS IN RESPONSE TO INEFFECTIVE STANDARD TREATMENT FOR POSTOPERATIVE RECURRENCE” (SICHUAN JIUZHANG BIOLOGICAL SCIENCE AND TECHNOLOGY CO., LTD., priority 2018, published 2021).
# Key:
# [1] = test system: high-grade glioma relapsed after failure of standard treatment; assay: Clinical trial of chlorogenic acid for injection, effectiveness by RANO standard and survival; format: in vivo, patients
# Protocol: A total of 23 subjects completed the test in this trial, including 5 patients with grade III gliomas and 18 patients with grade IV gliomas. […] The subjects included in this trial were all patients with high-grade glioma who relapsed after surgery and didn't response to the standard therapy. The standard treatment was chemotherapy and radiotherapy. […] Ineffective means tumor progression. […] The effectiveness evaluation was performed according to the RANO standard, and the specific RANO standards are as follows: [table] […] A total of 26 subjects were enrolled in the trial, 3 cases were released early, and 23 cases can be counted: […]
# [2] = test system: brain tumor with unclear pathological types that relapsed after surgery and on which the standard therapy failed; assay: Tumor inhibition rate in animal model of brain tumors with unclear pathological types; format: in vivo, rats; conditions: for Tumor inhibition rate (%) / Tumor weight: 5th day after drug-withdrawal
# Protocol: (§1) 1.1 Cell culture: The pathological tissue for cell culture was a tissue sample removed surgically from high-grade brain tumor that relapsed after surgery and on which the standard therapy failed. Glioblasts cells, high-grade anaplastic astrocytoma cells, high-grade anaplastic oligodendrocytoma cells, high-grade anaplastic oligoastrocytoma cells, and brain tumor cells with unclear pathological types, obtained by separation and culture of pathological tissue, were seeded in DMEM complete culture medium containing 10% FBS and routinely incubated in a 37° C., 5% carbon dioxide incubator under saturated humidity. TMZ was dissolved in DMSO solution, and the mass concentration of the stock solution was 100 mg/mL. Tumor cells in the logarithmic growth phase were diluted to obtain a cell suspension at 1×10^5 cells/mL, and the initial inducer dose 0.25 μg/mL of TMZ was added after routinely culturing for 24 h. The culture was continued for 15-20 days, and after stabilization of cell growth, the induced concentration of the drug was doubled, then the cells were further cultured for 15-20 d at each induced concentration. Thus, the final concentration of TMZ was 16.00 μg/mL, and various pathological types of cell suspensions were obtained.
# (§2) The cell suspension obtained in step 1 was inoculated into rats in situ, to prepare animal models of brain tumor with unclear pathological types that relapsed after surgery and on which the standard therapy failed, and the animals were divided into test groups listed in the following table. […] On the 5th day after drug-withdrawal, the size of the in situ tumor in the rat brain was observed, and the tumor was weighed. The tumor inhibition rate was calculated.
# [3] = test system: high-grade anaplastic oligoastrocytoma that relapsed after surgery and on which the standard therapy failed; assay: Tumor inhibition rate in animal model of high-grade anaplastic oligoastrocytoma; format: in vivo, rats; conditions: for Tumor inhibition rate (%) / Tumor weight: 5th day after drug-withdrawal
# Protocol: as §1
# (§3) The cell suspension obtained in step 1 was inoculated into rats in situ, to prepare animal models of high-grade anaplastic oligoastrocytoma that relapsed after surgery and on which the standard therapy failed, and the animals were divided into test groups listed in the following table. […] The tumor inhibition rate was calculated.
# [4] = test system: high-grade anaplastic oligodendrocytoma that relapsed after surgery and on which the standard therapy failed; assay: Tumor inhibition rate in animal model of high-grade anaplastic oligodendrocytoma; format: in vivo, rats; conditions: for Tumor inhibition rate (%) / Tumor weight: 5th day after drug-withdrawal
# Protocol: as §1
# as §3, with “oligodendrocytoma” for “oligoastrocytoma”
# [5] = test system: high-grade anaplastic astrocytoma that relapsed after surgery and on which the standard therapy failed; assay: Tumor inhibition rate in animal model of high-grade anaplastic astrocytoma; format: in vivo, rats; conditions: for Tumor inhibition rate (%) / Tumor weight: 5th day after drug-withdrawal
# Protocol: as §1
# as §2, with “high-grade anaplastic astrocytoma” for “brain tumor with unclear pathological types”
# [6] = test system: glioblastoma that relapsed after surgery and on which the standard therapy failed; assay: Tumor inhibition rate in animal model of glioblastoma; format: in vivo, rats; conditions: for Tumor inhibition rate (%) / Tumor weight: 5th day after drug-withdrawal
# Protocol: as §1
# as §3, with “glioblastoma” for “high-grade anaplastic oligoastrocytoma”
# [7] = dose 35 mg/kg i.p. daily 10 days
smiles,measurement,setting,value
"O=C(/C=C/c1ccc(O)c(O)c1)O[C@@H]1C[C@](O)(C(=O)O)C[C@@H](O)[C@H]1O [Chlorogenic acid, chlorogenic acid]",response rate,"[1]; 9 survival subjects with grade IV glioblastoma, 1 cycle",88.9%
same,response rate,"[1]; nine dead subjects with grade IV glioma, one cycle",11.1%
same,Tumor inhibition rate (%),[2]; [7],44.5%
same,Tumor weight,[2]; [7],1.21 ± 0.11
same,therapeutic effect in words,[2]; summary of the table for brain tumors with unclear pathological types,significant inhibitory effect
same,Tumor inhibition rate (%),[3]; [7],47.0%
same,therapeutic effect in words,[3]; summary of the anaplastic oligoastrocytoma model table,significant inhibitory effect
same,Tumor inhibition rate (%),[4]; [7],52.6%
same,therapeutic effect in words,[4]; summary of the anaplastic oligodendrocytoma model table,significant inhibitory effect
same,Tumor inhibition rate (%),[5]; [7],50.2%
same,Tumor weight,[5]; [7],1.12 ± 0.10
same,therapeutic effect in words,[5]; summary of the anaplastic astrocytoma model table,significant inhibitory effect
same,Tumor inhibition rate (%),[6]; [7],52.2%
same,therapeutic effect in words,[6]; summary of the glioblastoma model table,significant inhibitory effect
Cn1nnc2c(C(N)=O)ncn2c1=O [temozolomide],Tumor inhibition rate (%),[2]; dose 10 mg/kg oral 5 days,16.0%
same,Tumor weight,[2]; dose 10 mg/kg oral 5 days,1.83 ± 0.13
same,Tumor inhibition rate (%),[2]; dose 20 mg/kg oral 5 days,25.7%
same,Tumor weight,[2]; dose 20 mg/kg oral 5 days,1.62 ± 0.14
same,Tumor inhibition rate (%),[3]; dose 10 mg/kg oral 5 days,13.1%
same,Tumor weight,[3]; dose 10 mg/kg oral 5 days,1.72 ± 0.14
same,Tumor inhibition rate (%),[3]; dose 20 mg/kg oral 5 days,20.2%
same,Tumor weight,[3]; dose 20 mg/kg oral 5 days,1.58 ± 0.12
same,Tumor inhibition rate (%),[4]; dose 10 mg/kg oral 5 days,15.5%
same,Tumor weight,[4]; dose 10 mg/kg oral 5 days,1.80 ± 0.15
same,Tumor inhibition rate (%),[4]; dose 20 mg/kg oral 5 days,22.5%
same,Tumor weight,[4]; dose 20 mg/kg oral 5 days,1.65 ± 0.14
same,Tumor inhibition rate (%),[5]; dose 10 mg/kg oral 5 days,13.3%
same,Tumor weight,[5]; dose 10 mg/kg oral 5 days,1.95 ± 0.18
same,Tumor inhibition rate (%),[5]; dose 20 mg/kg oral 5 days,20.9%
same,Tumor weight,[5]; dose 20 mg/kg oral 5 days,1.78 ± 0.11
same,Tumor inhibition rate (%),[6]; dose 10 mg/kg oral 5 days,14.6%
same,Tumor weight,[6]; dose 10 mg/kg oral 5 days,1.75 ± 0.14
same,Tumor inhibition rate (%),[6]; dose 20 mg/kg oral 5 days,24.1%
same,Tumor weight,[6]; dose 20 mg/kg oral 5 days,1.54 ± 0.10
